Experimental data reported in US20100279976A1, “USE OF ARTEMISININ AND ITS DERIVATIVES IN CANCER THERAPY” (SHANGHAI INSTITUTES FOR BIOLOGICAL SCIENCES, CAS, priority 2009, published 2010).
pIC50: −log10 of the molar value.

Assays:
[1] = system: HepG2 hepatoma cells (p53 wild-type); experiment: MTT cell viability assay, HepG2; assay type: cell-based; conditions: Homo sapiens, 48 h
Method: (§1) The effects of ART derivatives on the viability of the aforementioned cells may be determined using the MTT assay. Briefly, 2,000 cells per well were plated in triplicate in 96-well plates. After a 24-h incubation, the cells may be treated with varying concentrations of ART derivatives (0, 1, 5, 10, 25, 50, and 100 μmol/L) for 48 h. The MTT assay may be performed according to the manufacture's instruction and the resultant formazan crystals may be dissolved in DMSO (100 μL). The absorbance may be then recorded at 540 nm. The effects of ART derivatives on cell viability may be assessed by comparing the percent cell viability of the treated cells with the vehicle (DMSO)-treated control cells, which may be arbitrarily assigned at 100% viability. The experiment may be repeated thrice under the same conditions.

[2] = system: Huh-7 hepatoma cells (p53 mutant); experiment: MTT cell viability assay, Huh-7; assay type: cell-based; conditions: Homo sapiens, Huh-7 (p53 mutant), 48 h
Method: as §1

[3] = system: BEL-7404 hepatoma cells (p53 mutant); experiment: MTT cell viability assay, BEL-7404; assay type: cell-based; conditions: Homo sapiens, BEL-7404 (p53 mutant), 48 h
Method: as §1

[4] = system: four hepatoma cell lines (HepG2, Hep3B, Huh-7, BEL-7404); experiment: MTT assay, mean over four hepatoma cell lines; assay type: cell-based; conditions: Homo sapiens, mean of HepG2, Hep3B, read-out: overall mean IC50 in the four hepatoma cell lines
Method: as §1

HepG2 cells = experiment: Cell cycle analysis (propidium iodide, flow cytometry), HepG2; assay type: cell-based, human
Method: (§2) Cells (2×10^5) may be treated with ART and DHA (0, 1, 10, 25, and 50 μmol/L) as described above for 48 h. The harvested cells may be re-suspended in 200 μL of cold PBS, to which cold ethanol (600 μl) may be added, and the mixture may then be incubated for 2 h at 4° C. After centrifugation, the pellet may be washed with cold PBS, suspended in 500 μL PBS, and incubated with 50 μL RNase (20 μg/mL final concentration) for 30 min. The cells may be incubated with propidium iodide (50 μg/mL final concentration) for 30 min in the dark. The cell cycle distribution may be determined using a FACSAria instrument (BD Biosciences). The experiment may be repeated thrice under the same conditions.

Hep3B cells [5] = experiment: Cell cycle analysis (propidium iodide, flow cytometry), Hep3B; assay type: cell-based, human; conditions: 48 h
Method: as §2

Hep3B cells [6] = experiment: Annexin V-FITC apoptosis assay, Hep3B; assay type: cell-based, human
Method: ART- and DHA-induced apoptosis alone or in combination with gemcitabine in HepG2 and Hep3B cells or in combination with carboplatin in ovarian cancer cells may be determined by flow cytometry using the Annexin V-FITC Apoptosis Detection kit following the manufacturer's instructions. Briefly, 2×10^5 cells may be treated with ART and DHA ([…]) or 10 μg/L gemcitabine for 48 h. The cells may then be harvested, washed in PBS, and incubated with Annexin V and propidium iodide for staining in binding buffer at room temperature for 10 min in the dark. The stained cells may be analyzed using the FACSAria instrument.

HepG2 xenograft tumors = experiment: HepG2 xenograft model in nude mice; assay type: in vivo; conditions: for tumor growth inhibition: HepG2 xenograft, 5 d/wk for 4 wk
Method: (§3) Female athymic nude mice (nu/nu; 4-6 wk of age) may be obtained from Shanghai Slac Laboratory Animal Co. Ltd. All animals may be fed with commercial diet and water ad libitum. The human HCC xenograft models in mice may be as follows. Briefly, HepG2 and Hep3B cells may be re-suspended in serum-free DMEM with Matrigel basement membrane matrix at a 5:1 ratio. The cell suspension may then be injected (7×10^6 cells; total volume, 0.2 mL) into the left inguinal area of the BALB/c nude mice. The animals may be monitored for activity and physical condition everyday, and the determination of body weight and measurement of tumor mass may be done every 3 d. Tumor mass may be determined by caliper measurement in two perpendicular diameters of the implant and calculated using the formula ½a×b^2, where a stands for the long diameter and b is the short diameter. The animal use and care protocol is approved by the Institutional Review Board of the Institute for Nutritional Sciences, Chinese Academy of Sciences.
(§4) Nude mice bearing HepG2 and Hep3B xenografts, randomly divided into various treatment and control groups (five mice per group), may be treated orally with either ART or DHA suspended in 5% sesame oil+95% saline, at a dose of 50 or 100 mg/kg/d, or a combination of ART or DHA with gemcitabine or with saline (as controls). In the mice receiving combination therapy, 80 mg/kg gemcitabine, representing one fifth of the reported most tolerated dose in mice, may be administered i.p. on days 7, 11, and 15 to avoid possible side effects and to illustrate potential chemo-sensitization effects in this combination regimen.

Hep3B xenograft tumors = experiment: Hep3B xenograft model in nude mice; assay type: in vivo
Method: as §3, §4

[7] = system: A2780 ovarian carcinoma cells; experiment: MTT cell viability assay, A2780; assay type: cell-based; conditions: Homo sapiens, A2780, 48 hrs
From the text: (§5) Human ovarian IOSE144 (immortalized non-tumorigenic human ovarian surface epithelial cells) and ovarian carcinoma (A2780 and OVCAR-3) cells that may be obtained from the American Type Culture Collection (ATCC, Manassas, Va.) are gifts from Dr. Jing Fang (Institute for Nutritional Sciences, Shanghai, China). All cells may be cultured according to the ATCC instructions. The compounds (ARS, ART, ARM and DHA) may be dissolved in DMSO (<0.1%, final concentration).
as §1

[8] = system: OVCAR-3 ovarian carcinoma cells; experiment: MTT cell viability assay, OVCAR-3; assay type: cell-based; conditions: Homo sapiens, OVCAR-3, 48 hrs
From the text: as §5, §1

[9] = HepG2, 10 μmol/L, 48 h (control 63.05%)
[10] = 1 μmol/L, 48 h (0 μmol/L: 0.8%)
[11] = HepG2 xenograft tissue, Western blot

C[C@@H]1CC[C@H]2[C@@H](C)C(=O)O[C@@H]3O[C@@]4(C)CC[C@@H]1[C@]32OO4 [ART, artemisinin]
IC20 [1]: 1.3 µM | pIC50 [1]: 4.85 | IC80 [1]: 145 µM | IC20 [2]: 0.7 µM | pIC50 [2]: 5.05 | IC80 [2]: 115 µM | IC20 [3]: 0.9 µM | pIC50 [3]: 5.00 | IC80 [3]: 107 µM | pIC50 [4]: 4.97 | cells in the G1 phase (HepG2 cells; [9]): 67.41% | cells in the G1 phase (HepG2 cells; HepG2, 25 μmol/L, 48 h): 70.72% | cells in the G1 phase (HepG2 cells; HepG2, 50 μmol/L, 48 h): 69.21% | cells in the G1 phase (Hep3B cells [5]; 1 μmol/L): 66.11% | cells in the G1 phase (Hep3B cells [5]; 10 μmol/L): 67.48% | cells in the G1 phase (Hep3B cells [5]; 25 μmol/L): 68.70% | cells in the G1 phase (Hep3B cells [5]; 50 μmol/L): 62.99% | apoptotic cells (Hep3B cells [6]; [10]): 2.25% | apoptotic cells (Hep3B cells [6]; 10 μmol/L, 48 h): 2.65% | apoptotic cells (Hep3B cells [6]; 25 μmol/L, 48 h): 4.8% | apoptotic cells (Hep3B cells [6]; 50 μmol/L, 48 h): 25.3% | G1-specific Cdks, cyclin D1, cyclin E, Cdk2, Cdk4, and E2F1 in tumor tissue (HepG2 xenograft tumors; [11]): decrease | MDM2 in tumor tissue (HepG2 xenograft tumors; [11]): decrease | activated caspase-3, cleaved PARP, Rb, p53, and the ratio of Bax/Bcl-2 in tumor tissue (HepG2 xenograft tumors; [11]): increases | p21 and p27 in tumor tissue (HepG2 xenograft tumors; [11]): increase | tumor growth inhibition (HepG2 xenograft tumors; oral 50 mg/kg/d): 30.0% | tumor growth inhibition (HepG2 xenograft tumors; oral 100 mg/kg/d): 39.4% | effect on tumor growth (Hep3B xenograft tumors; Hep3B xenograft, oral 50 and 100 mg/kg/d, alone): slight inhibitory effect on tumor growth | toxic effects (body weight) (Hep3B xenograft tumors; mouse, in vivo): Neither compound causes any observable toxic effects | IC20 [7]: 0.73 µM | pIC50 [7]: 4.75 | IC80 [7]: 426 µM | IC20 [8]: 0.46 µM | pIC50 [8]: 5.16 | IC80 [8]: 103 µM

C[C@H]1[C@@H](O)O[C@@H]2O[C@@]3(C)CC[C@H]4[C@H](C)CC[C@@H]1[C@@]24OO3 [DHA, dihydroartemisinin]
IC20 [1]: 1.2 µM | pIC50 [1]: 4.87 | IC80 [1]: 146 µM | IC20 [2]: 0.7 µM | pIC50 [2]: 5.02 | IC80 [2]: 131 µM | IC20 [3]: 0.7 µM | pIC50 [3]: 5.03 | IC80 [3]: 130 µM | pIC50 [4]: 4.97 | cells in the G1 phase (HepG2 cells; [9]): 69.36% | cells in the G1 phase (HepG2 cells; HepG2, 25 μmol/L, 48 h): 70.91% | cells in the G1 phase (HepG2 cells; HepG2, 50 μmol/L, 48 h): 72.03% | cells in the G1 phase (Hep3B cells [5]; 1 μmol/L): 68.11% | cells in the G1 phase (Hep3B cells [5]; 10 μmol/L): 69.03% | cells in the G1 phase (Hep3B cells [5]; 25 μmol/L): 70.50% | cells in the G1 phase (Hep3B cells [5]; 50 μmol/L): 62.99% | apoptotic cells (Hep3B cells [6]; [10]): 2.15% | apoptotic cells (Hep3B cells [6]; 10 μmol/L, 48 h): 12.9% | apoptotic cells (Hep3B cells [6]; 25 μmol/L, 48 h): 28.75% | apoptotic cells (Hep3B cells [6]; 50 μmol/L, 48 h): 31.05% | toxic effects based on observations of bodyweight (HepG2 xenograft tumors; HepG2 xenograft mice, alone or in combination with gemcitabine): neither ART nor DHA causes any observable toxic effects | tumor growth inhibition (HepG2 xenograft tumors; oral 50 mg/kg/d): 36.1% | tumor growth inhibition (HepG2 xenograft tumors; oral 100 mg/kg/d): 60.6% | toxic effects (body weight) (Hep3B xenograft tumors; Hep3B xenograft mice): Neither compound causes any observable toxic effects | IC20 [7]: 0.83 µM | pIC50 [7]: 4.78 | IC80 [7]: 328 µM | IC20 [8]: 0.56 µM | pIC50 [8]: 5.18 | IC80 [8]: 77.4 µM
